# From US11986471B2, “Compounds and methods of use” (Tango Therapeutics, Inc., priority 2018, dated 2024)
# Assays:
# PRMT5 [1] = biological target: T1, PRMT5 (Homo sapiens, UniProt O14744); assay: PRMT5 IC50 assay with no cofactor; type: biochemical
# T1 construct: purchased Viva (custom protein)
# Method in brief: (§1)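 IC50 values were measured against human PRMT5 with SAM, with MTA, or with no cofactor. Ki was derived from IC50 as Ki=IC50/1.5 with SAM and Ki=IC50/13.5 with MTA, and the Ki(SAM)/Ki(MTA) ratio was then taken.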
# HAP1 MTAP-deleted = assay: SDMA in-cell western assay, HAP1 MTAP-deleted cell line; type: cell-based; settings: for IC50: Homo sapiens, HAP1 MTAP-deleted cell line; for MTAP Intact/Deleted Ratio: IC50 ratio HAP1 MTAP-intact / HAP1 MTAP-deleted
# Method in brief: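 These are IC50 values from an in-cell western measuring SDMA. The HAP1 cells used carry no MTAP, in contrast to the isogenic partner line with endogenous MTAP expression.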
# PRMT5 [2] = biological target: T1, PRMT5; assay: PRMT5 IC50 assay in the presence of MTA as cofactor; type: biochemical; settings: for IC50: PRMT5, MTA as cofactor
# Method in brief: as §1
# HAP1 MTAP-intact = assay: SDMA in-cell western assay, HAP1 MTAP-intact cell line; type: cell-based; settings: Homo sapiens
# Method in brief: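 Potency reflects cellular SDMA reduction, detected by in-cell western, in HAP1 cells with or without MTAP (endogenous expression versus null).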
# PRMT5 [3] = biological target: T1, PRMT5; assay: PRMT5 IC50 assay in the presence of SAM as cofactor; type: biochemical
# Method in brief: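 Values reflect IC50 (μM) on human PRMT5 under three cofactor states. Selectivity is derived as the quotient of SAM-state Ki over MTA-state Ki, with each Ki obtained from its IC50.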
# [4] = ratio between Ki in the presence of SAM and Ki in the presence of MTA
# [5] = ratio between the Ki in the presence of SAM and the Ki in the presence of MTA
# T1 sequence (O14744 whole entry): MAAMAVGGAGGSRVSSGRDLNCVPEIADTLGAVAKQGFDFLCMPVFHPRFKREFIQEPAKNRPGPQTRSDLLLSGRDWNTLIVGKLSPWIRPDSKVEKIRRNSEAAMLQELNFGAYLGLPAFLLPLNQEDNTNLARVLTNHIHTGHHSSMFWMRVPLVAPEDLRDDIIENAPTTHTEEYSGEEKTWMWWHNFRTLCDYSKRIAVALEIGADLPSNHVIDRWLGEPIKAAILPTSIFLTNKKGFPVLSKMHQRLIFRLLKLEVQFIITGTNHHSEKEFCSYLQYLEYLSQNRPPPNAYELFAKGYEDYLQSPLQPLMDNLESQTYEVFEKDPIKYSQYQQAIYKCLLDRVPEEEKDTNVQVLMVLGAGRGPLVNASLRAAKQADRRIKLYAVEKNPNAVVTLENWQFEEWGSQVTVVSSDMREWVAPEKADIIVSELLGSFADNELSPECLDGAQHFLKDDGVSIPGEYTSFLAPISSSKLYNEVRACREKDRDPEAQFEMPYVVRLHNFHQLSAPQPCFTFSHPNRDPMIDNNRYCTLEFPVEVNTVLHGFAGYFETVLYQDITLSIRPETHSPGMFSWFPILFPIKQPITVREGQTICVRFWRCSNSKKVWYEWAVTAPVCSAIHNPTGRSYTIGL
# T1 sequence (Q9BQA1 whole entry partner): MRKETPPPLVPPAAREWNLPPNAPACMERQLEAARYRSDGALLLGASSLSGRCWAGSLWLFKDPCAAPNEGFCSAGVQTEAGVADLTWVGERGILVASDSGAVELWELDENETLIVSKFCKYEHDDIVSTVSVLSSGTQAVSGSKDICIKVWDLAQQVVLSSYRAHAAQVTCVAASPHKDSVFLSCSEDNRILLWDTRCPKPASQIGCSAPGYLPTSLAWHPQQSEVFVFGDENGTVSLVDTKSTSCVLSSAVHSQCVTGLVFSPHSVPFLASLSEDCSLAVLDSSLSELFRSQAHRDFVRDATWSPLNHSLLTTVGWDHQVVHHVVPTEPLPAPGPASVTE
SMILES,IC50 (PRMT5 [1]; read-out: No Co-factor IC50),IC50 (HAP1 MTAP-deleted),MTAP Intact/Deleted Ratio (HAP1 MTAP-deleted),IC50 (PRMT5 [2]),SAM/MTA Ratio (PRMT5 [2]; [4]),IC50 (HAP1 MTAP-intact),IC50 (PRMT5 [3]),IC50 (PRMT5 [1]),SAM/MTA Ratio (PRMT5 [2]; [5])
"CCN1CCN(c2cc(C(=O)NC[C@H](O)CN3CCc4cc(OCc5ocnc5C)ccc4C3)cc(NC3CCC3)n2)CC1 [Compound 410, 2-(cyclobutylamino)-6-(4-ethylpiperazin-1-yl)-N-[(2S)-2-hydroxy-3-{6-[(4-methyl-1,3-oxazol-5-yl)methoxy]-1,2,3,4-tetrahydroisoquinolin-2-yl}propyl]pyridine-4-carboxamide]",500 to 5000 nM,< 1000 nM,B* (an IC50 ratio greater than or equal to 3 fold but lower than 10 fold between the IC50 in the HAP1 MTAP-intact cell line and the HAP1 MTAP-deleted cell line),50 to 500 nM,A (a Ki ratio greater than or equal to 10 fold between the Ki in the presence of SAM and the Ki in the presence of MTA),< 1000 nM,50 to 500 nM,–,–
"O=C(NC[C@H](O)CN1CCc2c(ccc(OCc3cnco3)c2Cl)C1)c1cc(NC2COC2)nc(N2CCCCC2)n1 [Compound 327, (S)—N-(3-(5-chloro-6-(oxazol-5-ylmethoxy)-3N-dihydroisoquinolin-2(1H)-yl)-2-hydroxypropyl)-6-(oxetan-3-ylamino)-2-(piperidin-1-yl)pyrimidine-4-carboxamide]",500 to 5000 nM,1000 to 10000 nM,B* (an IC50 ratio greater than or equal to 3 fold but lower than 10 fold between the IC50 in the HAP1 MTAP-intact cell line and the HAP1 MTAP-deleted cell line),50 to 500 nM,A (a Ki ratio greater than or equal to 10 fold between the Ki in the presence of SAM and the Ki in the presence of MTA),≥ 10000 nM,50 to 500 nM,–,–
"CCN(C)c1cc(C(=O)NC[C@H](O)CN2CCc3cc(OCc4cnco4)ccc3C2)cc(NC2CCC2)n1 [Compound 438, (S)-2-(cyclobutylamino)-6-(ethyl(methyl)amino)-N-(2-hydroxy-3-(6-(oxazol-5-ylmethoxy)-3,4-dihydroisoquinolin-2(1H)-yl)propyl)isonicotinamide]",–,1000 to 10000 nM,C* (an IC50 ratio of less than 3 fold between the IC50 in the HAP1 MTAP-intact cell line and the HAP1 MTAP-deleted cell line),50 to 500 nM,–,1000 to 10000 nM,500 to 5000 nM,≥ 5000 nM,A (a Ki ratio greater than or equal to 10 fold between the Ki in the presence of SAM and the Ki in the presence of MTA)
"O=C(NC[C@H](O)CN1CCc2c(ccc(OCc3cnco3)c2Br)C1)c1cccc(NC2CCC2)c1 [Compound 348, (S)—N-(3-(5-bromo-6-(oxazol-5-ylmethoxy)-3,4-dihydroisoquinolin-2(1H)-yl)-2-hydroxypropyl)-3-(cyclobutylamino)benzamide]",≥ 5000 nM,≥ 10000 nM,C* (an IC50 ratio of less than 3 fold between the IC50 in the HAP1 MTAP-intact cell line and the HAP1 MTAP-deleted cell line),500 to 5000 nM,A (a Ki ratio greater than or equal to 10 fold between the Ki in the presence of SAM and the Ki in the presence of MTA),≥ 10000 nM,500 to 5000 nM,–,–
"Cc1ncoc1COc1ccc2c(c1Br)CCN(C[C@@H](O)CNC(=O)c1ccnc(NC3CCCCC3)c1)C2 [Compound 346, (S)—N-(3-(5-bromo-6-((4-methyloxazol-5-yl)methoxy)-3N-dihydroisoquinolin-2(1H)-yl)-2-hydroxypropyl)-2-(cyclohexylamino)isonicotinamide]",≥ 5000 nM,≥ 10000 nM,C* (an IC50 ratio of less than 3 fold between the IC50 in the HAP1 MTAP-intact cell line and the HAP1 MTAP-deleted cell line),50 to 500 nM,A (a Ki ratio greater than or equal to 10 fold between the Ki in the presence of SAM and the Ki in the presence of MTA),≥ 10000 nM,500 to 5000 nM,–,–
"O=C(NC[C@H](O)CN1CCc2c(ccc(OCc3cnco3)c2Cl)C1)c1cc(NC2COC2)nc(N2CCOCC2)n1 [Compound 298, (S)—N-(3-(5-chloro-6-(oxazol-5-ylmethoxy)-3,4-dihydroisoquinolin-2(1H)-yl)-2-hydroxypropyl)-2-morpholino-6-(oxetan-3-ylamino)pyrimidine-4-carboxamide]",≥ 5000 nM,1000 to 10000 nM,C* (an IC50 ratio of less than 3 fold between the IC50 in the HAP1 MTAP-intact cell line and the HAP1 MTAP-deleted cell line),500 to 5000 nM,A (a Ki ratio greater than or equal to 10 fold between the Ki in the presence of SAM and the Ki in the presence of MTA),≥ 10000 nM,500 to 5000 nM,–,–
"Cc1ncoc1COc1ccc2c(c1Cl)CCN(C[C@@H](O)CNC(=O)c1cccc(NC3CCC3)c1)C2 [Compound 344, N-[(2S)-3-{5-chloro-6-[(4-methyl-1,3-oxazol-5-yl)methoxy]-1,2,3,4-tetrahydroisoquinolin-2-yl}-2-hydroxypropyl]-3-(cyclobutylamino)benzamide]",≥ 5000 nM,≥ 10000 nM,C* (an IC50 ratio of less than 3 fold between the IC50 in the HAP1 MTAP-intact cell line and the HAP1 MTAP-deleted cell line),50 to 500 nM,A (a Ki ratio greater than or equal to 10 fold between the Ki in the presence of SAM and the Ki in the presence of MTA),≥ 10000 nM,50 to 500 nM,–,–
"CCC(=O)N1CC(Nc2cc(C(=O)NC[C@H](O)CN3CCc4c(ccc(OCc5cnco5)c4C)C3)ccn2)C1 [Compound 495, (S)—N-(2-hydroxy-3-(5-methyl-6-(oxazol-5-ylmethoxy)-3,4-dihydroisoquinolin-2(1H)-yl)propyl)-2-((1-propionylazetidin-3-yl)amino)isonicotinamide]",–,≥ 10000 nM,C* (an IC50 ratio of less than 3 fold between the IC50 in the HAP1 MTAP-intact cell line and the HAP1 MTAP-deleted cell line),50 to 500 nM,–,≥ 10000 nM,50 to 500 nM,500 to 5000 nM,A (a Ki ratio greater than or equal to 10 fold between the Ki in the presence of SAM and the Ki in the presence of MTA)
"CC(C)C(=O)N1CC(Nc2cc(C(=O)NC[C@H](O)CN3CCc4cc(OCc5cnco5)ccc4C3)ccn2)C1 [Compound 479, N-[(2S)-2-hydroxy-3-[6-(oxazol-5-ylmethoxy)-3,4-dihydro-1H-isoquinolin-2-yl]propyl]-2-[[1-(2-methylpropanoyl)azetidin-3-yl]amino]pyridine-4-carboxamide]",–,1000 to 10000 nM,C* (an IC50 ratio of less than 3 fold between the IC50 in the HAP1 MTAP-intact cell line and the HAP1 MTAP-deleted cell line),50 to 500 nM,–,1000 to 10000 nM,500 to 5000 nM,≥ 5000 nM,A (a Ki ratio greater than or equal to 10 fold between the Ki in the presence of SAM and the Ki in the presence of MTA)
CC(=O)N1CCC(Nc2cc(C(=O)NC[C@H](O)CN3CCc4c(ccc(OCc5ocnc5C)c4C)C3)cc(N3CCN(C)CC3)n2)CC1 [Compound 593],–,1000 to 10000 nM,B* (an IC50 ratio greater than or equal to 3 fold but lower than 10 fold between the IC50 in the HAP1 MTAP-intact cell line and the HAP1 MTAP-deleted cell line),50 to 500 nM,–,≥ 10000 nM,50 to 500 nM,500 to 5000 nM,A (a Ki ratio greater than or equal to 10 fold between the Ki in the presence of SAM and the Ki in the presence of MTA)
"Cc1c(OCc2cnco2)ccc2c1CCN(C[C@@H](O)CNC(=O)c1ccnc(NC3CC4(CCC4)C3)c1)C2 [Compound 473, (S)—N-(2-hydroxy-3-(5-methyl-6-(oxazol-5-ylmethoxy)-3,4-dihydroisoquinolin-2(1H)-yl)propyl)-2-(spiro[3.3]heptan-2-ylamino)isonicotinamide]",–,1000 to 10000 nM,C* (an IC50 ratio of less than 3 fold between the IC50 in the HAP1 MTAP-intact cell line and the HAP1 MTAP-deleted cell line),50 to 500 nM,–,≥ 10000 nM,50 to 500 nM,500 to 5000 nM,A (a Ki ratio greater than or equal to 10 fold between the Ki in the presence of SAM and the Ki in the presence of MTA)
"O=C(NC[C@H](O)CN1CCc2c(ccc(OCc3cnco3)c2Cl)C1)c1cc(NC2COC2)nc(N2CCN(C(=O)C3CC3)CC2)n1 [Compound 297, (S)—N-(3-(5-chloro-6-(oxazol-5-ylmethoxy)-3N-dihydroisoquinolin-2(1H)-yl)-2-hydroxypropyl)-2-(4-(cyclopropanecarbonyl)piperazin-1-yl)-6-(oxetan-3-ylamino)pyrimidine-4-carboxamide]",500 to 5000 nM,1000 to 10000 nM,C* (an IC50 ratio of less than 3 fold between the IC50 in the HAP1 MTAP-intact cell line and the HAP1 MTAP-deleted cell line),50 to 500 nM,A (a Ki ratio greater than or equal to 10 fold between the Ki in the presence of SAM and the Ki in the presence of MTA),≥ 10000 nM,50 to 500 nM,–,–
